From article PMC12444472, “BCI inhibits MKP3 by targeting the kinase-binding domain and disrupting ERK2 interaction” (The Journal of Biological Chemistry, 2025)
Substitutions are numbered along the chain they refer to.

Legend:
Assay in all cases: Phosphatase activity of MKP3 mutant toward pNPP with ERK2
Assay type in all cases: biochemical
Conditions in all cases: 1 µM enzyme, 1 µM ERK2, 8 mM pNPP, 2.5 μM BCI
MKP3 R85G = target: T1, MKP3 R85G (Homo sapiens, UniProt Q16828, R85G)
T1 construct: MKP3(1–381) (MKP3^FL); made in house; host or cells: Escherichia coli BL21(DE3)
T1 sequence (Q16828 1-381 R85G): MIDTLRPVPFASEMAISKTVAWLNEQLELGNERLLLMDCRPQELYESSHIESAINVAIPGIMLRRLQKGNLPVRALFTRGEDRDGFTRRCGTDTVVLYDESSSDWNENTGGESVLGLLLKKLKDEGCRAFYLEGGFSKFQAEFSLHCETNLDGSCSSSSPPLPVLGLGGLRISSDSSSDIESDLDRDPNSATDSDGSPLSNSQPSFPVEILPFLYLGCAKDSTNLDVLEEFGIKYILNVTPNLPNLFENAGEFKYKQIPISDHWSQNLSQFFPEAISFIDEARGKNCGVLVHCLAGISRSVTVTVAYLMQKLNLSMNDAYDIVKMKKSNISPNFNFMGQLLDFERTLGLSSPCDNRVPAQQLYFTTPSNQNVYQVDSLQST
Experimental: (§1) The phosphatase activity of MKP3 toward pNPP was measured using continuous spectrophotometric assays, either in the absence or the presence of ERK2 at a 1:1 M ratio with MKP3. Experiments were conducted at 25 °C in a reaction mixture with a total volume of 1.8 ml, containing 50 mM Mops (pH 7.0), 100 mM NaCl, and 0.1 mM EDTA. MKP3 (1 μM) was preincubated with varying concentrations of the inhibitor BCI for 5 min before initiating the reaction by adding pNPP at concentrations ranging from 0 to 14 mM. Continuous absorbance changes were recorded using a PerkinElmer LAMBDA 45 spectrophotometer equipped with a magnetic stirrer in the cuvette holder. The production of p-nitrophenol was monitored at 410 nm using an extinction coefficient of 18,000 M^-1 cm^-1.
(§2) Figure S2. Inhibition of full-length MKP3 mutant activity by BCI. The phosphatase activities (v0) of full-length MKP3 and its mutants (E81G, R83G, R85G, R87G, and R89A) at 1 µM concentration were measured using continuous spectrophotometric assays with 8 mM pNPP as the substrate, in the presence of ERK2 (1 µM), either without or with 2.5 μM BCI. Data are presented as mean ± SD (n = 3). Reactions were performed at 25 °C in a total volume of 1.8 mL, in a buffer containing 50 mM MOPS (pH 7.0), 100 mM NaCl, and 0.1 mM EDTA.

MKP3 T87G = target: T2, MKP3 T87G (Homo sapiens, UniProt Q16828, T87G)
T2 construct: MKP3(1–381) (MKP3^FL); made in house; host or cells: Escherichia coli BL21(DE3)
T2 sequence (Q16828 1-381 T87G): T1 sequence (Q16828 1-381 R85G) with G85R, T87G
Experimental: as §1, §2

MKP3 E81G = target: T3, MKP3 E81G (Homo sapiens, UniProt Q16828, E81G)
T3 construct: MKP3(1–381) (MKP3^FL); made in house; host or cells: Escherichia coli BL21(DE3)
T3 sequence (Q16828 1-381 E81G): T1 sequence (Q16828 1-381 R85G) with E81G, G85R
Experimental: as §1, §2

MKP3 R89A = target: T4, MKP3 R89A (Homo sapiens, UniProt Q16828, R89A)
T4 construct: MKP3(1–381) (MKP3^FL); made in house; host or cells: Escherichia coli BL21(DE3)
T4 sequence (Q16828 1-381 R89A): T1 sequence (Q16828 1-381 R85G) with G85R, R89A
Experimental: as §1, §2

enzymatic activity upon BCI addition compared with MKP3^WT (MKP3 R85G): BCI inhibition comparable to MKP3^WT
enzymatic activity upon BCI addition compared with MKP3^WT (MKP3 T87G): BCI inhibition comparable to MKP3^WT
enzymatic activity upon BCI addition compared with MKP3^WT (MKP3 E81G): higher enzymatic activity than WT MKP3
enzymatic activity upon BCI addition compared with MKP3^WT (MKP3 R89A): higher enzymatic activity than WT MKP3
Compound: O=C1/C(=C/c2ccccc2)C(NC2CCCCC2)c2ccccc21 (stereo not shown) [BCI, (E)-2-benzylidene-3-(cyclohexylamino)-2,3-dihydro-1H-inden-1-one]
